# Experimental data reported in US6071896A, “Suppression of thromboxane levels by percutaneous administration of aspirin” (Gundersen Clinic, Ltd., priority 1998, dated 2000).
# “And” between values parts separate entries of the source, which are not always exact repeats. Identical values can stand only once. “Also recorded” adds a separate entry of the source.
# Assays:
# Type in all cases: in vivo, human
# thromboxane-B2 = experiment: Thromboxane (thromboxane-B2) blood levels after topical aspirin, Example 1
# Method: Five healthy adult volunteers (3 male, 2 female) were studied. Each refrained from ingesting oral aspirin for two weeks prior to study. Prior to treatment in accordance with the present invention, baseline thromboxane levels and hemoccults were obtained.
# Thromboxane levels were measured by assaying for blood levels of thromboxane-B2 in accordance with the method described in Braden et al., Circulation 82:178 (1990). Thromboxane levels can also be measured in either blood or urine according to known methods which include those without limitation disclosed in the following references: Hirsh et al., supra; Robertson et al., N. Engl. J. Med. 304:998 (1981); Pedersen et al., N. Engl. J. Med. 311:1206 (1984); Patrignani et al., J. Clin. Invest. 69:1366 (1982); Preston et al., 304:76 (1981); Hirsh et al., N. Engl. J. Med. 304:685 (1981).
# A preparation of aspirin in isopropyl alcohol and propylene glycol was prepared by mixing "Aspirsol"™ topical aspirin (NDC54102-001-01; commercially available from TERRI Pharmaceuticals, Inc., PO Box 6454, Kingwood, Tex. 77325) in accordance with the package instructions except that 8 ml instead of 10 ml of the suspending solution was used. The resulting solution contained approximately 9% aspirin rather than the 7-8% indicated on the package label.
# After base levels of thromboxane had been measured, the aspirin solution was first applied on the morning of Day 1 to the skin of the human subjects within an hour of mixing by rubbing the aspirin solution on the arms and/or chest of the subject. The application was repeated with freshly prepared solution for each of four additional mornings (Days 2-5) in the same manner. Between applications the subjects followed their normal schedule of bathing and showering. Eight hours after the fifth application (on Day 5) blood was drawn for salicylate levels and thromboxane levels to be determined. With one subject, blood was drawn for TXA2 levels every day just before application of a new aspirin solution (i.e., approximately 24 hours after application of the previous aspirin solution). Hemoccults were also tested.
# Two of the subjects continued daily application for another five days (total ten days). For Days 6 and 7, aspirin solutions freshly prepared as described above were used. Beginning with Day 8, a different aspirin preparation was used. This second preparation was prepared by crushing aspirin tablets containing approximately 975 mg aspirin to form a powder. The powder was then formed into a paste with approximately 2 ml of distilled water. This paste was then mixed with 4 ml propylene glycol and 4 ml ethanol to produce approximately 10 ml of a cloudy solution. This cloudy solution was then filtered to remove excipients and other insoluble material found in the crushed aspirin tablets. After filtering, approximately 10 ml of a clear solution was obtained which contained approximately 9% aspirin. 8 ml of the resulting solution was used in each application. This second solution was applied to the two continuing subjects as previously described. Salicylate and thromboxane levels were checked after the tenth day.
# PGI2 biosynthesis = experiment: Urinary 2,3-dinor-6-keto-PGF1a (PGI-M) excretion, dermal aspirin, Example 2; conditions: for Urinary PGI-M excretion, peak decrease (day 4): p=0.074 by ANOVA (not significant)
# Method: Only healthy male and female volunteers were studied. The subjects were asked to avoid aspirin and any other cyclooxygenase inhibitors for the 10 days before and throughout the period of investigation. Aspirin (acetyl salicylic acid, USP) powder was dissolved in propylene glycol and either isopropyl alcohol or ethanol (1.7:1 v/v) to a final concentration of 94 mg/ml. […] The aspirin preparation was made daily immediately prior to its application Volunteers attended the clinic where the preparation was applied and were asked not to wash the area for at least 12 hours. The aspirin solution was applied to the forearm and upper arm over a 15 min interval. Volunteers received aspirin 250 mg (n=4), aspirin 750 mg (n=6) or vehicle (n=6) for 10 days and were followed for 8 days following drug withdrawal. The volunteers were aged 31-56 years, with equal numbers of male and females in each treatment group.
# Blood without anticoagulant was obtained for serum TXB2, the stable metabolite of TXA2, prior to and at intervals during and following aspirin administration. The blood was allowed to clot in glass at 37° C. for 60 min and the serum removed and stored at -20° C. until analyzed. Urine was collected over 24 hours at corresponding times for measurement of 2,3-dinor-TXB2 (TX-M) and 2,3-dinor-6-keto-PGF1a (PGI-M), major enzymatic metabolites of TXA2 and PGI2, respectively [Lawson et al., Analyt. Biochem. 150:463 (1985); FitzGerald et al., N. Engl. J. Med. 310: 1065 (1984)]. Excretion of these products is an index of the in vivo formation of their parent compounds [FitzGerald et al., supra; Reilly and Fitzgerald, Blood 69: 180 (1987)]. Serum TXB2 and urinary metabolites were determined by negative ion-chemical ionization, gas chromatography-mass spectrometry (NICI-GCMS) using authentic deuterated standards, as previously described [Braden et al., supra].
# [1] = tested on: TX-M excretion (TXA2 biosynthesis); experiment: Urinary TX-M excretion before and after dermal or oral aspirin, Example 3; parameters: TX-M post ASA: unit not given beside the values
# Method: In an additional 4 subjects, we examined the increase in PGI2 formation in response to intravenous bradykinin prior to and following oral aspirin 75 mg or dermal aspirin 750 mg daily for 14 days. The protocol for bradykinin has been described previously [Clark, N.Engl.J.Med 325:1137 (1991)]. Volunteers were admitted after an overnight fast to the Clinical Research Center. Blood samples were obtained for serum TXB2 and the subject asked to void. Through a peripheral vein, 1 liter of normal saline was infused over 1 hour. After a further hour, bradykinin was infused in incremental doses of 100-800 ng/kg/min, each over 15 mm. The infusion was continued at the maximum tolerated dose for a total period of 2 hr. Blood pressure and heart rate were monitored continuously. Urine was collected in separate 2 hr aliquots prior to, during and following the bradykinin infusion.
# ^1 The excretion of TXM and PGIM before and following dermal aspirin
# 750 mg/day or oral aspirin 75 mg/day for 10 days. Urine samples were
# collected over 2 hr before (rest) and following the administration of […]
# [2] = Subject 1, baseline 401, about 24 h after previous application
# [3] = highest dose of dermal aspirin (750 mg/day)
smiles,measurement,setting,value
"CC(=O)Oc1ccccc1C(=O)O [aspirin, acetyl salicylic acid]",Decrease in thromboxane levels after five daily applications,"thromboxane-B2; Day 5, subject 3 not considered",at least 50%
same,"Thromboxane level, Day 3",thromboxane-B2; [2],250 ng/cc
same,"Thromboxane level, Day 4",thromboxane-B2; [2],199 ng/cc
same,"Thromboxane level, Day 5, prior to the Day 5 dose","thromboxane-B2; Subject 1, baseline 401, morning of Day 5",105 ng/cc
same,"Thromboxane level, Day 2","thromboxane-B2; Subject 1, baseline 401, topical aspirin ~9% solution daily, about 24 h after previous application",311 ng/cc
same,"Thromboxane level, Day 10","thromboxane-B2; two subjects continuing to ten daily applications, subject 1 baseline 401, subject 2 baseline 372",18 ng/cc and 12 ng/cc
same,Suppression of thromboxane levels by Day 10,"thromboxane-B2; two subjects, ten daily applications",95% and 97%
same,PGI2 biosynthesis based on urinary PGI-M,PGI2 biosynthesis; dermal aspirin,little inhibition of basal or stimulated PGI2 formation; also recorded: only a small fall in PGI2 biosynthesis
same,"Urinary PGI-M excretion, peak decrease (day 4)","PGI2 biosynthesis; dermal aspirin 250 mg/day, baseline 402±139 pg/mg creatinine",84±4 % of baseline
same,"Urinary PGI-M excretion, peak decrease (day 4)","PGI2 biosynthesis; dermal aspirin 750 mg/day, baseline 248±73 pg/mg creatinine",76±7 % of baseline
same,Decrease in basal PGI-M excretion by day 4,PGI2 biosynthesis; [3],24%
same,PGI-M excretion by day 10,PGI2 biosynthesis; [3],83 % of baseline
same,TX-M post ASA,"[1]; Dermal aspirin 750 mg/day, PT 1, pre ASA 220",46
same,TX-M post ASA,"[1]; Dermal aspirin 750 mg/day, PT 2, pre ASA 121",29
same,TX-M post ASA,"[1]; Oral aspirin 75 mg/day, PT 1, pre ASA 136",26
same,TX-M post ASA,"[1]; Oral aspirin 75 mg/day, PT 2, pre ASA 111",43
same,Urinary TX-M,[1]; dermal aspirin 750 mg/day,marked fall in urinary TX-M; also recorded: suppressed TXM
same,Urinary TX-M,[1]; oral aspirin 75 mg/day,marked fall in urinary TX-M
